Paper PMC6562610, “Inhibition of Hedgehog Signaling in Fibroblasts, Pancreatic, and Lung Tumor Cells by Oxy186, an Oxysterol Analogue with Drug-Like Properties” (Cells, 2019)
pIC50: −log10 of the molar value. Entries after “also recorded” stand apart in the source; their conditions may differ.

Legend:
[1] = tested on: Hh target gene Gli1 expression in NIH3T3-E1 cells; experiment: Inhibition of CAPAN-1 conditioned medium (ligand)-induced Gli1 mRNA expression, Q-RT-PCR; format: cell-based; conditions: NIH3T3 cells activated by CAPAN-1 CM Hh ligands, 72 h
Description: (§1) NIH3T3-E1 fibroblasts were obtained from ATCC (Manassas, VA) and cultured, as previously described. CAPAN-1 and PANC-1 human pancreatic cancer cells were obtained from ATCC and cultured in Dulbecco’s Modified Eagle Medium (DMEM) containing 10% heat-inactivated fetal bovine serum (FBS) (Hyclone Laboratories, Logan, UT, USA) and antibiotics, as previously described. The human lung cancer cell lines A549 and H2030 were obtained from ATCC and cultured in RPMI-1640 containing 10% FBS. The human hepatoma cell line HepG2 was obtained from ATCC and cultured in DMEM containing 10% FBS. Mouse embryonic fibroblasts (MEFs) from suppressor of fused (Sufu) null mice (Sufu^−/−) were provided by Dr. Philip Beachy of Stanford University and cultured in DMEM containing 10% FBS. Gant61, SB431542 and vismodegib (GDC0449) were obtained from Cayman Chemical, HPI-1 was obtained from Abcam. For experiments, cells were treated in a medium containing 5% FBS.
Growth medium in confluent […] tissue culture plates of CAPAN-1 cells were replaced with 10 ml of fresh growth medium and cells were incubated for a total of 7 days. Conditioned medium (CM), containing Shh and Ihh, was collected and spun down to remove any detached cells and debris, aliquoted, and stored frozen at −80 °C [37].
(§2) Total RNA was extracted with the RNeasy Plus Mini Kit from Qiagen, according to the manufacturer’s instructions. One microgram of RNA was reverse-transcribed using an iScript Reverse Transcription Supermix from Bio-Rad, to make single-stranded cDNA. The cDNAs were then mixed with Qi SYBR Green Supermix (Bio-Rad, Hercules, CA, USA) for quantitative RT-PCR assay using a Bio-Rad I-cycler IQ quantitative thermocycler. […] Fold changes in gene expression were calculated using the ΔΔCt method. […]
Figure 3 Inhibition of ligand-induced Hedgehog signaling. […] After 72 h, RNA was extracted and analyzed by Q-RT-PCR for the expression of Hh target genes Gli1 (a,b,d) and Ptch1 (c), and normalized to Oaz1 expression. […] Luciferase activity was measured and normalized to the Renilla luciferase activity. […]

[2] = tested on: LXR target gene Abca1; experiment: Induction of LXR target gene Abca1 in NIH3T3 cells, Q-RT-PCR; format: cell-based, mouse
Description: (§3) Total RNA was extracted with the RNeasy Plus Mini Kit from Qiagen, according to the manufacturer’s instructions. One microgram of RNA was reverse-transcribed using an iScript Reverse Transcription Supermix from Bio-Rad, to make single-stranded cDNA. The cDNAs were then mixed with Qi SYBR Green Supermix (Bio-Rad, Hercules, CA, USA) for quantitative RT-PCR assay using a Bio-Rad I-cycler IQ quantitative thermocycler. All PCR samples were prepared in triplicate wells in a 96-well plate. After 40 cycles of PCR, melt curves were examined in order to ensure primer specificity. Fold changes in gene expression were calculated using the ΔΔCt method. Primers used for mouse were as follows: Oaz1 (5’-CCACTGCTTCGCCAGAGAG-3’) and (5’-CCCGGACCCAGGTTACTA-3’), Gli1 (5’-[…]-3’ and 5’-[…]-3’), Ptch1 (5’-CCATCGGCGACAAGAACC-3’ and 5’-[…]-3’), Hip (5’-[…]-3’ and 5’-[…]-3’), and Abca1 (5’-[…]-3’ and 5’-[…]-3’). Primers used for human were as follows: SREBP1c (5’-CGCTCCTCCATCAATGACA-3’ and 5’-[…]-3’), GAPDH (5’-[…]-3’ and 5’-[…]-3’), SHH (5’-CGGAGCGAGGAAGGGAAAG-3’) and (5’-[…]-3’), and GLI1 (5’-GAAGCCGAGCCGAGTATC-3’ and 5’-[…]-3’).
Figure 7 Induction of LXR target gene expression by Oxy186 and LXR agonist TO901317 (TO). (a) NIH3T3 cells and (b) HepG2 cells were treated with DMEM containing 5% FBS in the presence or absence of TO (2 µM) or Oxy186 (10 µM). […] Data from a representative experiment are reported as the mean of triplicate determinations ± SD (** p < 0.01 vs. control).

[3] = Pharmacokinetic study in mice, single oral dose; format: in vivo, balb/c mice; conditions: Figure 8b drug-like properties summary
Description: In an initial assessment of the drug-like properties of Oxy186, we performed a pharmacokinetic (PK) study in mice. Oxy186, formulated in 4% ethanol, 15% DMSO, and 81% corn oil, was administered to balb/c mice by oral gavage as a single dose of 50 mg/kg.
Figure 8 Drug-like properties of Oxy186. (a) A single dose of Oxy186 at 50 mg/kg, formulated in 4% ethanol/ 15% DMSO/ 81% corn oil, was administered to balb/c mice by oral gavage. Plasma samples were taken at 10 min, 30 min, 1, 2, 4, 6, 8, and 24 h, followed by LC/MS analysis of the plasma. (b) Evolution of Oxy186 from parent compound Oxy16 and their drug-like properties.

[4] = Metabolic stability in human liver microsomes; format: in vitro ADME
[5] = Metabolic stability in mouse liver microsomes; format: in vitro ADME
[6] = tested on: Gli1 expression in PANC-1 cells; experiment: Inhibition of baseline Gli1 expression in PANC-1 cells, Q-RT-PCR; format: cell-based, human; conditions: 48 h
Description: as §1
as §2, with “thermocycler. All PCR samples were prepared in triplicate wells in a 96-well plate.” for “thermocycler.”
(§4) Figure 4 Inhibition of Gli and Shh expression in (a) PDAC (PANC-1) and (b,c) human lung cancer cells (A549 and H2030, respectively) by Oxy186. Cells were treated with the compounds as indicated in DMEM or RPMI 1640 containing 5% FBS for (a) 48 or (b,c) 72 hours, then RNA was extracted and analyzed by Q-RT-PCR for the expression of Gli1 and normalized to GAPDH expression. (d) CAPAN-1 cells were treated with the compounds, as indicated, in DMEM containing 5% FBS for 72 h, then RNA was extracted and analyzed by Q-RT-PCR for the expression of Shh and normalized to GAPDH expression. […]

[7] = tested on: Gli1 expression in A549 cells; experiment: Inhibition of Gli1 expression in A549 cells, Q-RT-PCR; format: cell-based, human; conditions: 72 h
Description: as §1
as §2, with “thermocycler. All PCR samples were prepared in triplicate wells in a 96-well plate.” for “thermocycler.”
as §4

[8] = tested on: Gli1 expression in H2030 cells; experiment: Inhibition of Gli1 expression in H2030 cells, Q-RT-PCR; format: cell-based, human; conditions: 72 h
Description: as §1
as §2, with “thermocycler. All PCR samples were prepared in triplicate wells in a 96-well plate.” for “thermocycler.”
as §4

[9] = tested on: Shh expression in CAPAN-1 cells; experiment: Inhibition of Shh expression in CAPAN-1 cells, Q-RT-PCR; format: cell-based, human; conditions: 72 h
Description: as §1
as §2, with “thermocycler. All PCR samples were prepared in triplicate wells in a 96-well plate.” for “thermocycler.”
as §4

[10] = tested on: A549 cells; experiment: Cell counting assay, A549; format: cell-based, human; conditions: 96 h
Description: (§5) A549 and H2030 cells cultured in 12-well plates at 20% confluence were treated with Oxy186, HPI-1, Gant61, or GDC0449 for 96 hours and then trypsinized and suspended in fresh medium. An aliquot of cell suspension was applied to a hemocytometer and counted under a microscope.
(§6) Figure 6 Inhibition of human pancreatic and lung cancer cell proliferation by Oxy186. (a,c) A549, (b) and (d) H2030, (e) PANC-1, and (f) CAPAN-1 cells were treated with the compounds as indicated in RPMI 1640 (a–d) or DMEM (e,f) containing 5% FBS for 96 h and then were trypsinized and counted. Data from a representative experiment are reported as the mean of triplicate determinations ± SD (* p < 0.05 vs. Control; ** p < 0.01 vs. control).

[11] = tested on: CAPAN-1 cells; experiment: Cell counting assay, CAPAN-1; format: cell-based, human; conditions: 96 h
Description: as §5, §6

[12] = tested on: H2030 cells; experiment: Cell counting assay, H2030; format: cell-based, human; conditions: 96 h
Description: as §5, §6

[13] = tested on: PANC-1 cells; experiment: Cell counting assay, PANC-1; format: cell-based, human; conditions: 96 h
Description: as §5, §6

[14] = tested on: LXR target gene SREBP1c; experiment: Induction of LXR target gene SREBP1c in HepG2 cells, Q-RT-PCR; format: cell-based, human; conditions: 2 µM, 72 h
Description: as §3
Figure 7 Induction of LXR target gene expression by Oxy186 and LXR agonist TO901317 (TO). (a) NIH3T3 cells and (b) HepG2 cells were treated with DMEM containing 5% FBS in the presence or absence of TO (2 µM) or Oxy186 (10 µM). […]

CC(C)CCC(O)C(C)(O)C1CCC2C3CC=C4CC(O)CCC4(C)C3CCC21C [Oxy16, 20-α, 22(R)-dihydroxycholesterol, reference compound]
pIC50 [1]: < 5.30 | LXR agonism (Figure 8b summary) ([2]; Figure 8b drug-like properties summary): Stronger LXR agonist | In vivo availability / stability (Figure 8b summary) [3]: Unstable in vivo | HLM, Half-Life [4]: 15 min | remaining at 1 h ([4]; 60 min, read-out: HLM, % Remaining after 60 min): 6% | half-life ([4]; human, liver microsomes, read-out: HLM, Half-Life): < 15 min | remaining at 1 h ([5]; 60 min, read-out: MLM, % Remaining after 60 min): 5% | half-life ([5]; read-out: MLM, Half-Life): 14 min

CS(=O)(=O)c1ccc(C(=O)Nc2ccc(Cl)c(-c3ccccn3)c2)c(Cl)c1 [GDC0449, vismodegib]
Inhibition of high baseline expression of Gli1 ([6]; 10 µM): did not have a similar effect | Inhibition of expression of Gli1 ([7]; 10 µM): significantly inhibited | Inhibition of expression of Gli1 ([8]; 10 µM): significantly inhibited | Inhibition of Shh expression [9]: inhibitory effects on Shh expression in CAPAN-1 cells, but to a lesser extent | Inhibition of cell proliferation ([10]; 10 µM): not | Anti-proliferation effect [11]: marginally effective

CN(C)c1ccccc1CN1CCCN(Cc2ccccc2N(C)C)C1c1ccncc1 [Gant61]
Inhibition of high baseline expression of Gli1 ([6]; 20 µM): significantly inhibited | Inhibition of expression of Gli1 ([7]; 20 µM): significantly inhibited | Inhibition of expression of Gli1 ([8]; 20 µM): significantly inhibited | Inhibition of Shh expression [9]: inhibitory effects on Shh expression in CAPAN-1 cells, but to a lesser extent; also recorded: significant inhibition | Inhibition of cell proliferation ([10]; 20 µM): significantly inhibited | Anti-proliferative effect [12]: significant anti-proliferative effect | Anti-proliferation effect [13]: significant anti-proliferation effects | Anti-proliferation effect [11]: significant anti-proliferation effects

O=S(=O)(c1ccccc1)N(CC(F)(F)F)c1ccc(C(O)(C(F)(F)F)C(F)(F)F)cc1 [TO901317, reference compound]
Induction of expression of LXR target gene Abca1 ([2]; NIH3T3-E1 cells, 2 µM, 72 h): significantly induced | Induction of expression of SREBP1c [14]: significantly induced
